Measurements taken from ChEMBL document CHEMBL4831531, “Mangostanin Derivatives as Novel and Orally Active Phosphodiesterase 4 Inhibitors for the Treatment of Idiopathic Pulmonary Fibrosis with Improved Safety” (J Med Chem, 2021).
pIC50: −log10 of the molar value. Calls of active or inactive are those of the source. The calls are words filed in the database; no cut-off is given here.

Molecular target: 3',5'-cyclic-AMP phosphodiesterase 4D (Homo sapiens, UniProt Q08499)
Experiment: Inhibition of PDE4D2 (86-413) (unknown origin) expressed in Escherichia coli BL21 assessed as using [3H]-cAMP as substrate measured for 15 mins by liquid scintillation counting analysis
Conditions: not given

Chain of 3',5'-cyclic-AMP phosphodiesterase 4D (Q08499 whole entry): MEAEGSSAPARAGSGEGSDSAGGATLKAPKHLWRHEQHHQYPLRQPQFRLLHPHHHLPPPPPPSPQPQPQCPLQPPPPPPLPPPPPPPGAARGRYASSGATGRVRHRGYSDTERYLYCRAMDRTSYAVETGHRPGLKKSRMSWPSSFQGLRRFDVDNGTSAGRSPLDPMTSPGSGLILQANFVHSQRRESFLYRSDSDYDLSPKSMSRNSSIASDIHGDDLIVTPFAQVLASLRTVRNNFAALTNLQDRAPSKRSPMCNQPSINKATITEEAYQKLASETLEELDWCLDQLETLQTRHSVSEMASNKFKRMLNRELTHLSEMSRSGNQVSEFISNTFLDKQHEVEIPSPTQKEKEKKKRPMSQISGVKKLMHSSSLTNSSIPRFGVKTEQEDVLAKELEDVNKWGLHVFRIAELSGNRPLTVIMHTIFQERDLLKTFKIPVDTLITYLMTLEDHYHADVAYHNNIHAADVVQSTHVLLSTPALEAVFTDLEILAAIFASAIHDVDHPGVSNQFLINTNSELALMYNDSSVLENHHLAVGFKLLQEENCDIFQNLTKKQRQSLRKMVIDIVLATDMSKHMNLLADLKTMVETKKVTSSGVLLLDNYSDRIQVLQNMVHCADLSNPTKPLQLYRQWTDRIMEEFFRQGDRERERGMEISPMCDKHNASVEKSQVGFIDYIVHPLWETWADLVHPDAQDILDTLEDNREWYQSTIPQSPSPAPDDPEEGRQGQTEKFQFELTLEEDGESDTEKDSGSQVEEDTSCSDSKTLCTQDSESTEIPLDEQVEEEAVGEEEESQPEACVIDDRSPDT

Row | Compound | pIC50
1 | CCOC(=O)/C=C/COc1c2c(cc3oc4cc(OCc5cccc(F)c5)c(OC)c(CC=C(C)C)c4c(=O)c13)OC(C)(C)C=C2 | 8.19
2 | COc1c(O)cc2oc3cc4c(c(OCCCCCC(=O)O)c3c(=O)c2c1CC=C(C)C)C=CC(C)(C)O4 | 7.60
3 | COc1c(O)cc2oc3cc4c(c(OCC(=O)O)c3c(=O)c2c1CC=C(C)C)C=CC(C)(C)O4 | 7.77
4 | CCOc1cc2oc3cc4c(c(OC/C=C/C(=O)O)c3c(=O)c2c(CC=C(C)C)c1OC)C=CC(C)(C)O4 | 7.32
5 | COc1c(OCCCCCCC(=O)O)cc2oc3cc4c(c(O)c3c(=O)c2c1CC=C(C)C)C=CC(C)(C)O4 | 7.72
6 | COc1c(O)cc2oc3cc4c(c(OCCCC(=O)O)c3c(=O)c2c1CC=C(C)C)C=CC(C)(C)O4 | < 6.00
7 | COc1c(OCc2cccc(C)c2)cc2oc3cc4c(c(OC/C=C/C(=O)O)c3c(=O)c2c1CC=C(C)C)C=CC(C)(C)O4 | < 6.00
8 | COc1c(OCc2ccccc2)cc2oc3cc4c(c(OC/C=C/C(=O)O)c3c(=O)c2c1CC=C(C)C)C=CC(C)(C)O4 | 7.62
9 | COc1c(OCc2cccc(F)c2)cc2oc3cc4c(c(OC/C=C/C(=O)O)c3c(=O)c2c1CC=C(C)C)C=CC(C)(C)O4 | < 6.00
10 | COc1c(OC(C)C)cc2oc3cc4c(c(OC/C=C/C(=O)O)c3c(=O)c2c1CC=C(C)C)C=CC(C)(C)O4 | 7.51
11 | CCOC(=O)/C=C/COc1c2c(cc3oc4cc(OCc5ccc(F)cc5)c(OC)c(CC=C(C)C)c4c(=O)c13)OC(C)(C)C=C2 | 7.62
12 | COc1c(O)cc2oc3cc4c(c(OCCCCCCC(=O)O)c3c(=O)c2c1CC=C(C)C)C=CC(C)(C)O4 | 6.52
13 | COc1c(OCc2ccc(S(C)(=O)=O)cc2)cc2oc3cc4c(c(OC/C=C/C(=O)O)c3c(=O)c2c1CC=C(C)C)C=CC(C)(C)O4 | 7.74
14 | COc1c(OCc2ccc(F)cc2)cc2oc3cc4c(c(OC/C=C\C(=O)O)c3c(=O)c2c1CC=C(C)C)C=CC(C)(C)O4 | 7.70
15 | COc1c(O)cc2oc3cc4c(c(OC/C=C/C(=O)O)c3c(=O)c2c1CC=C(C)C)C=CC(C)(C)O4 | 6.31
16 | COc1cccc(COc2cc3oc4cc5c(c(OC/C=C/C(=O)O)c4c(=O)c3c(CC=C(C)C)c2OC)C=CC(C)(C)O5)c1 | 7.80
17 | COc1c(OCc2ccc(F)cc2)cc2oc3cc4c(c(OCCCC(=O)O)c3c(=O)c2c1CC=C(C)C)C=CC(C)(C)O4 | 8.38
18 | COc1c(O)cc2oc3cc4c(c(OCCCCC(=O)O)c3c(=O)c2c1CC=C(C)C)C=CC(C)(C)O4 | 7.62
19 | COc1cc2oc3cc4c(c(OC/C=C/C(=O)O)c3c(=O)c2c(CC=C(C)C)c1OC)C=CC(C)(C)O4 | 7.52

Tested on: not listed separately
Experiment: Toxicity in dog assessed as emesis at 1 mg/kg, po
Format: organism-based, Canis lupus familiaris
Conditions: in vivo

Row | Compound | Activity
20 | COc1ccc(C2CNC(=O)C2)cc1OC1CCCC1 (stereo not given) [ROLIPRAM] | Toxic

Tested on: Rattus norvegicus
Experiment: Anti-idiopathic pulmonary fibrotic activity in bleomycin-induced Sprague-Dawley rat model assessed as prevention of structural damage of lungs at 150 mg/kg, po treated for 28 consecutive days by Hematoxylin and eosin staining based assay relative to control
Format: functional, organism-based
Conditions: not given

Row | Compound | Activity
21 | Cc1ccc(=O)n(-c2ccccc2)c1 [PIRFENIDONE] | Active

Tested on: Rattus norvegicus
Experiment: Anti-idiopathic pulmonary fibrotic activity in bleomycin-induced Sprague-Dawley rat model assessed as inhibition of collagen deposition around trachea and cell hyperplasia at 150 mg/kg, po treated for 28 consecutive days by Hematoxylin and eosin staining based assay relative to control
Format: functional
Conditions: not given

Row | Compound | inhibition in vivo at 150 mg/kg
22 | Cc1ccc(=O)n(-c2ccccc2)c1 [PIRFENIDONE] | 100%

Tested on: Rattus norvegicus
Experiment: Anti-idiopathic pulmonary fibrotic activity in bleomycin-induced Sprague-Dawley rat model assessed as decrease in alpha-smooth muscle actin protein expression of lungs at 150 mg/kg, po treated for 28 consecutive days by Western blot analysis
Format: functional, organism-based
Conditions: not given

Row | Compound | Activity
23 | Cc1ccc(=O)n(-c2ccccc2)c1 [PIRFENIDONE] | Active

Tested on: Rattus norvegicus
Experiment: Anti-idiopathic pulmonary fibrotic activity in bleomycin-induced Sprague-Dawley rat model assessed as decrease in fibronectin expression of lungs at 150 mg/kg, po treated for 28 consecutive days by Western blot analysis
Format: functional, organism-based
Conditions: not given

Row | Compound | Activity
24 | Cc1ccc(=O)n(-c2ccccc2)c1 [PIRFENIDONE] | Active

Tested on: Rattus norvegicus
Experiment: Anti-inflammatory activity in bleomycin-induced idiopathic pulmonary fibrotic activity Sprague-Dawley rat model assessed as decrease in NO production in lungs at 150 mg/kg, po treated for 28 consecutive days
Format: functional, organism-based
Conditions: not given

Row | Compound | Activity
25 | Cc1ccc(=O)n(-c2ccccc2)c1 [PIRFENIDONE] | Active
